Test results taken from patent US9040501B2, “Compositions and methods for treating cancer” (Eisai Inc., priority 2009, dated 2015).
Read-outs that look alike come from different tables or passages of the source. Marks after values point to notes of the source that are not given here.

Tests used:
cytidine deaminase (CDA) = cytidine deaminase (CDA) (Homo sapiens (Human), UniProt P32320); test: Effect of ER-876437 on the half-life of decitabine in the presence of CDA in Tris-HCl buffer at 37° C.; format: biochemical; conditions: for half-life at 0.2 mM: pH 7.4, Estimated T1/2 of decitabine
Method: The solvent delivery system employed an HPLC quaternary pump, low pressure mixing. An autosampler having a variable loop, 0.1 to 100 μL range and temperature controlled thermostat was used. […] Degassed HPLC grade water and degassed HPLC grade acetonitrile were used as solvents for the mobile phases. […] [table]

murine lymphoma L1210 [1] = conditions: for Mean Survival (days) ± SD: twice a day (8 hours apart), 4 days
Method: Or, a stock of L1210 ascites in BSA solution was diluted to 1×10^4 cells/0.1 ml for use in the study mice.
(§1) The mice were prepared with intravenous (IV) injection of L1210 ascites (prepared as described above) one day prior to commencing the dosing. […] The total IV injection for all mice took about 50 minutes.
All solutions were stored on ice while dosing. Mice were dosed (intraperitoneally (IP) or per os (orally, PO)) twice a day (8 hours apart) for 4 consecutive days.
(§2) Dead mice were autopsied and observed for the presence of tumors in organs.

murine lymphoma L1210 [2] = conditions: for Mean Liver wts (g) ± SD / Mean Spleen wts (g) ± SD: on autopsy; for % ILS (Increased Life Span): vs vehicle group
Method: Preparation of L1210 Cells: L1210 ascitic cells were prepared by passaging them in mice at least three times as follows. Each CD2F1 female mouse was intraperitoneally (IP) injected with about 10^5 L1210 ascitic cells. After one week, the mouse was sacrificed (asphyxiation via CO2). The mouse was placed on its back, its belly surface was cleaned with alcohol wipes, and a small incision was made into the peritoneal cavity. […] Diluted ascites (diluted 1:10 again) were counted on a hematocytometer and the number of cells per mL was calculated. About 10^5 L1210 cells were used for a subsequent passage for another mouse passage. Or, a stock of L1210 ascites in BSA solution was diluted to 1×10^4 cells/0.1 ml for use in the study mice.
as §1
Decitabine was prepared fresh twice a day, just prior to dosing. All solutions were stored on ice while dosing. Mice were dosed (intraperitoneally (IP) or per os (orally, PO)) twice a day (8 hours apart) for 4 consecutive days.
as §2
Preparation of study mice with IV injection of L1210 ascites took about 60 minutes. […] All solutions were stored on ice while dosing. Mice were dosed (IP or PO) twice a day (7 or 8 hours apart) for 4 consecutive days.

[3] = Pharmacokinetics in mice after IV and PO administrations; format: in vivo, male BALB-c mice
Method: […]. All doses were prepared in phosphate buffered saline (PBS) and were administered at a volume of 5 mL/kg. Five mice per group were used in these studies. Blood samples were taken serially from the tail vein of each mouse at predetermined timepoints. Blood samples from all mice in each group were pooled together prior to processing for plasma. The pooled blood samples were spun down within 30-60 minutes after withdrawal and the plasma was harvested and frozen for assay. After preparation and extraction the samples were assayed by LC/MS/MS.

[4] = Stability in simulated gastric fluid at 37° C. (HPLC); format: physicochemical;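 on % ER-876400 (peak retention time: 1.46 min): percent of total sample signal attributed to the analyte peak at each sampling time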
Excerpt: […]. See Kararli, T. T. Comparison of the GI anatomy, physiology, and biochemistry of humans and commonly used laboratory animals. BioPharm & DrugDispos. 16:351-380, 1995, which is hereby wholly incorporated by reference. The gastric pH in fasted monkeys has been reported to have a similar range of 1-3. See Kondo, H. et al. Characteristics of the gastric pH profiles of unfed and fed cynomolgus monkeys as pharmaceutical product development subjects. BioPharm & DrugDispos. 24:45-51, 2003, which is hereby wholly incorporated by reference.
Materials: Simulated gastric fluid (SGF) was prepared by mixing the following into 100 mL of HPLC grade (or purified) water: 200 mg of sodium chloride and 1.87 mL of a 37.52% HCl stock solution.
The HPLC analyses were conducted using a Waters UPLC solvent delivery system with Corona CAD detection. The HPLC Column (Waters Atlantis HHS T3 2.1×100 mm, 1.8 um) was maintained at 40° C. and preequilibrated with a solution containing 98% water and 2% acetonitrile. The temperature controlled auto-sampler was maintained at 37° C. The flow rate for the Water/MeCN mobile phase was 0.65 mL/min, with a gradient following sample injection (5 μL) as follows: […]
The Water/MeCN mobile phase was applied to the column with the above described flow rate and gradient and the HPLC chromatograms were collected. After 3.5 minutes, the column was reequilibrated with 98% water/2% MeCN for 1.5 minutes.

[5] = Veh/decitabine 0.1 mg/kg PO, on autopsy
[6] = Veh/decitabine 0.1 mg/kg PO (7 hours apart)
[7] = Veh/decitabine 0.1 mg/kg PO (8 hr.)
[8] = male, BALB-c, mouse, plasma, 10 mg/kg IV
[9] = male, BALB-c, mouse, plasma, 10 mg/kg IV, read-out: Plasma concentrations
[10] = male, BALB-c, mouse, plasma, 10 mg/kg PO, read-out: Plasma concentrations

Chain of cytidine deaminase (CDA) (P32320 whole entry): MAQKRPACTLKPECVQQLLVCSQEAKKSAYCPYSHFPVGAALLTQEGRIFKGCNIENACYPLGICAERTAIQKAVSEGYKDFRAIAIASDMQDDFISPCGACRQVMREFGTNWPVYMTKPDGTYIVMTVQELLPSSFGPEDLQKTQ

Nc1ncn([C@H]2C[C@H](O)[C@@H](CO)O2)c(=O)n1 [decitabine, 5-aza-2′-deoxycytidine]
Estimated T1/2 of decitabine (cytidine deaminase (CDA); Decitabine in Tris-HCl buffer at 37° C. (absence of CDA)): 9 h | Estimated T1/2 of decitabine (cytidine deaminase (CDA); Decitabine with CDA and ER-876437 in Tris-HCl buffer at 37° C.): 9 h | half-life at 0.2 mM (cytidine deaminase (CDA); Tris-HCl buffer, Decitabine in Tris-HCl buffer at 37° C. (absence of CDA)): 9 h | half-life at 0.2 mM (cytidine deaminase (CDA); cytidine deaminase (CDA) in Tris-HCl buffer, Decitabine with CDA and ER-876437 in Tris-HCl buffer at 37° C.): 9 h | half-life at 0.2 mM (cytidine deaminase (CDA); cytidine deaminase (CDA) in Tris-HCl buffer, Decitabine with CDA in Tris-HCl buffer at 37° C.): ~0.383 h | Mean Survival (days) ± SD (murine lymphoma L1210 [1]; Veh/decitabine 0.1 mg/kg IP): 13.4 ± 0.89 days | Mean Liver wts (g) ± SD (murine lymphoma L1210 [1]; [5]): 2.17 ± 0.1 g | Mean Spleen wts (g) ± SD (murine lymphoma L1210 [1]; [5]): 0.34 ± 0.04 g | Mean Survival (days) ± SD (murine lymphoma L1210 [1]; Veh/decitabine 0.1 mg/kg PO): 11.2 ± 0.45 days | % ILS (Increased Life Span) (murine lymphoma L1210 [1]; Veh/decitabine 0.1 mg/kg PO, vs vehicle group): 51.35% | difference in survival when dosed 7 or 8 hours apart (murine lymphoma L1210 [2]; 0.1 mg/kg decitabine PO twice a day, 4 days): no difference in survival | Mean Survival (days) ± SD (murine lymphoma L1210 [2]; Veh/decitabine 0.1 mg/kg IP, twice a day (7 hours apart), 4 days): 13.6 ± 0.55 days | Mean Liver wts (g) ± SD (murine lymphoma L1210 [2]; [6]): 2.02 ± 0.31 g | Mean Spleen wts (g) ± SD (murine lymphoma L1210 [2]; [6]): 0.36 ± 0.11 g | % ILS (Increased Life Span) (murine lymphoma L1210 [2]; [6]): 47.50% | Mean Liver wts (g) ± SD (murine lymphoma L1210 [2]; [7]): 1.81 ± 0.41 g | Mean Spleen wts (g) ± SD (murine lymphoma L1210 [2]; [7]): 0.33 ± 0.06 g | Mean Survival (days) ± SD (murine lymphoma L1210 [2]; Veh/decitabine 0.1 mg/kg PO (8 hr.), twice a day (8 hours apart), 4 days): 11.6 ± 0.55 days | % ILS (Increased Life Span) (murine lymphoma L1210 [2]; [7]): 45.00% | Mean Survival (days) ± SD (murine lymphoma L1210 [2]; Veh/decitabine 0.1 mg/kg PO, twice a day (7 hours apart), 4 days): 11.8 ± 0.84 days

O=C1NCC=CCN1[C@@H]1O[C@H](CO)[C@@H](O)[C@H]1O [ER-876400, (Z)-3,4-dihydro-1-((2R,3R,4S,5R)-tetrahydro-3,4-dihydroxy-5-(hydroxymethyl)furan-2-yl)-1H-1,3-diazepin-2(7H)-one, reference compound]
AUC0-∞ ([3]; 10 mg/kg IV): 20999 ng·h/mL | AUC0-∞/D ([3]; 10 mg/kg IV): 2100 ng · hr/mL/D | AUCExtrap ([3]; 10 mg/kg IV): 10.3% | CL ([3]; 10 mg/kg IV): 8 mL/min/kg | dose-normalized exposures (AUC0-∞) ([3]; 10 mg/kg IV): 2100 ng·h/mL per mg/kg | t1/2 ([3]; 10 mg/kg IV): 16.1 h | Plasma concentrations ([3]; 10 mg/kg IV, 2 hr): 1753 ^a ng/mL | AUC(0-t) ([3]; 10 mg/kg PO): 13160 ng·h/mL | AUC(0-inf) [3, 8]: 21000 ng·h/mL | clearance [3, 8]: 8 mL/min/kg | half-life [3, 8]: 16.1 h | concentration at 0.167 hr [3, 9]: 19900 ng/mL | concentration at 0.5 hr [3, 9]: 10200 ng/mL | concentration at 1 hr [3, 9]: 4210 ng/mL | concentration at 4 hr [3, 9]: 495 ng/mL | concentration at 6 hr [3, 9]: 118 ng/mL | concentration at 8 hr [3, 9]: 59 ng/mL | concentration at 24 hr [3, 9]: 93 ng/mL | AUC(0-t) ([3]; male, BALB-c, mouse, plasma, 10 mg/kg IV, read-out: AUC0-t): 18800 ng·h/mL | Vd ([3]; male, BALB-c, mouse, plasma, 10 mg/kg IV, read-out: Vss): 3.2 L/kg | Cmax ([3]; male, BALB-c, mouse, plasma, 10 mg/kg PO): 7860 ng/mL | bioavailability ([3]; male, BALB-c, mouse, plasma, 10 mg/kg PO vs IV, calculated based on AUC0-t, read-out: F (bioavailability)): 69.9% | concentration at 0.167 hr [3, 10]: 7100 ng/mL | concentration at 0.5 hr [3, 10]: 7860 ng/mL | concentration at 1 hr [3, 10]: 4660 ng/mL | concentration at 2 hr ([3]; male, BALB-c, mouse, plasma, 10 mg/kg PO, 2 hr, read-out: Plasma concentrations): 1750 ng/mL | concentration at 4 hr [3, 10]: 320 ng/mL | concentration at 6 hr [3, 10]: 87 ng/mL | concentration at 8 hr [3, 10]: 44 ng/mL | concentration at 24 hr [3, 10]: 264 ng/mL | AUC(0-t) ([3]; male, BALB-c, mouse, plasma, 10 mg/kg PO, read-out: AUC0-t): 13200 ng·h/mL | % ER-876400 (peak retention time: 1.46 min) ([4]; SGF at 37° C., analysis time 0:00:30): 19.59% | % ER-876400 (peak retention time: 1.46 min) ([4]; SGF at 37° C., analysis time 0:06:08): 17.04% | % ER-876400 (peak retention time: 1.46 min) ([4]; SGF at 37° C., analysis time 0:11:45): 16.72% | % ER-876400 (peak retention time: 1.46 min) ([4]; SGF at 37° C., analysis time 0:17:23): 15.17% | % ER-876400 (peak retention time: 1.46 min) ([4]; SGF at 37° C., analysis time 0:23:01): 14.20% | % ER-876400 (peak retention time: 1.46 min) ([4]; SGF at 37° C., analysis time 0:28:38): 13.23% | % ER-876400 (peak retention time: 1.46 min) ([4]; SGF at 37° C., analysis time 0:34:16): 12.51% | % ER-876400 (peak retention time: 1.46 min) ([4]; SGF at 37° C., analysis time 0:39:54): 14.05% | % ER-876400 (peak retention time: 1.46 min) ([4]; SGF at 37° C., analysis time 0:45:33): 11.42% | % ER-876400 (peak retention time: 1.46 min) ([4]; SGF at 37° C., analysis time 0:51:10): 10.71% | % ER-876400 (peak retention time: 1.46 min) ([4]; SGF at 37° C., analysis time 0:56:48): 8.87% | % ER-876400 (peak retention time: 1.46 min) ([4]; SGF at 37° C., analysis time 1:02:27): 9.14% | % ER-876400 (peak retention time: 1.46 min) ([4]; SGF at 37° C., analysis time 1:08:07): 8.81% | % ER-876400 (peak retention time: 1.46 min) ([4]; SGF at 37° C., analysis time 1:13:46): 7.66% | % ER-876400 (peak retention time: 1.46 min) ([4]; SGF at 37° C., analysis time 1:19:23): 4.05% | % ER-876400 (peak retention time: 1.46 min) ([4]; SGF at 37° C., analysis time 1:25:01): 6.44% | % ER-876400 (peak retention time: 1.46 min) ([4]; SGF at 37° C., analysis time 1:30:38): 5.92% | % ER-876400 (peak retention time: 1.46 min) ([4]; SGF at 37° C., analysis time 1:36:16): 5.72% | % ER-876400 (peak retention time: 1.46 min) ([4]; SGF at 37° C., analysis time 1:41:53): 5.69% | % ER-876400 (peak retention time: 1.46 min) ([4]; SGF at 37° C., analysis time 1:47:32): 4.98% | % ER-876400 (peak retention time: 1.46 min) ([4]; SGF at 37° C., analysis time 1:53:10): 4.51% | % ER-876400 (peak retention time: 1.46 min) ([4]; SGF at 37° C., analysis time 1:58:49): 3.85% | % ER-876400 (peak retention time: 1.46 min) ([4]; SGF at 37° C., analysis time 2:04:28): 3.59% | % ER-876400 (peak retention time: 1.46 min) ([4]; SGF at 37° C., analysis time 2:21:24): 2.82% | % ER-876400 (peak retention time: 1.46 min) ([4]; SGF at 37° C., analysis time 2:49:37): 1.52% | % ER-876400 (peak retention time: 1.46 min) ([4]; SGF at 37° C., analysis time 3:17:48): 0.81% | % ER-876400 (peak retention time: 1.46 min) ([4]; SGF at 37° C., analysis time 3:23:28): 0.62% | % ER-876400 (peak retention time: 1.46 min) ([4]; SGF at 37° C., analysis time 3:46:00): 0.39% | % ER-876400 (peak retention time: 1.46 min) ([4]; SGF at 37° C., analysis time 3:51:38): 0.25% | % ER-876400 (peak retention time: 1.46 min) ([4]; analysis time 0:00:00, initial sample in water): 84.04% | time to degrade by 50% ([4]; simulated gastric fluid (pH 1.45) at 37° C.): less than 30 seconds
